Tests used:
[1] = test system: Human neuroblastoma cells (SK-N-SH); experiment: Intracellular NAD+ in human neuroblastoma cells treated with H2O2, iron and ascorbic acid; type: cell-based; settings: for depletion of intracellular NAD+ levels: pre-treatment with 2, 20 and 200 μM, 100 μM H2O2
[2] = test system: human primary Keratinocytes; experiment: Residual DNA damage (dsDNA breaks) after UVB, Keratinocytes; type: cell-based; settings: for amount of dsDNA breaks: EC100 or EC100 equivalent combinations; for EC100: mono therapy, DNA repair
[3] = test system: human primary Fibroblasts; experiment: Residual DNA damage (dsDNA breaks) after UVB, Fibroblasts; type: cell-based; settings: for amount of dsDNA breaks: EC100 or EC100 equivalent combinations; for EC100: mono therapy, DNA repair
[4] = test system: primary human foetal astrocytes; experiment: H2O2-mediated intracellular NAD+ depletion in human foetal astrocytes; type: cell-based; settings: for intracellular NAD+ after oxidative (H2O2) insult: 24 hour pre-treatment (Melatonin 5 μM, Clioquinol 10 μM, resveratrol 100 μM), then 100 μM H2O2 15 min
[5] = test system: primary human foetal astrocytes; experiment: Intracellular NAD+ levels in cultured human foetal astrocytes (NAD(H) microcycling assay); type: cell-based; settings: for reversal of NAD+ depletion compared to 1-MT treatment alone: supplementation together with 1-MT; for abrogation of resveratrol-induced increase of intracellular NAD+ by de novo pathway inhibitor: inhibitor 1 mM + resveratrol 100 μM
[6] = test system: primary human foetal astrocytes; settings: exposure to 10-100 μM H2O2 for 20 min
[7] = test system: PARP-1; settings: exposure to 10-100 μM H2O2 for 20 min
[8] = test system: human primary Keratinocytes; experiment: Intracellular NAD 24 hr after UVB exposure in human skin cells; type: cell-based; settings: single therapy 24 hrs after 15 min UVB; NAD levels / LDH activity; N=3
Procedure: Human skin cells (keratinocytes) were grown at a density of 5×10^6 in PERMANOX® chamber-slides (NUNC) for 2 weeks. This method is commonly used in the industry and is well known to those skilled in the art. Accordingly, there is no need to detail the method utilised in this specification.
Cells were either left unexposed or exposed to 15 min UVB (˜200 mJcm^−2).
Cells were left to incubate for 24 hrs before analysis of intracellular NAD (FIG. 19a-d to FIG. 21) and extracellular LDH (FIG. 21). FIGS. 19a-d show the intracellular NAD concentrations+/−UV exposure, +/−supplementation. FIGS. 19e-h show supernatant LDH activity+/−UVE exposure, +/−supplementation.

[9] = molecular target: human recombinant NMNAT (hr-NMNAT1) (Homo sapiens, UniProt Q9HAN9); settings: resveratrol 50, 100 and 200 μM
human recombinant NMNAT (hr-NMNAT1), sequence (Q9HAN9 whole entry): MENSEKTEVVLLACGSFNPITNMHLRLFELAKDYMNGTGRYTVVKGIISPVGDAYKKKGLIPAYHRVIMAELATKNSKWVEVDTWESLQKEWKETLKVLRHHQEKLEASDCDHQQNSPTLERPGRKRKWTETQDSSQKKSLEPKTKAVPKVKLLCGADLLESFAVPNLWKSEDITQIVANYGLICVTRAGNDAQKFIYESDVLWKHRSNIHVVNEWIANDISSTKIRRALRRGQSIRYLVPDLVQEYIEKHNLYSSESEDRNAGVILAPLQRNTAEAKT

[10] = test system: nicotinamide mononucleotide adenylyl transferase (NMNAT); experiment: NMNAT activity in whole cell homogenates of human brain astrocytes; type: biochemical

With `COc1ccc2[nH]cc(CCNC(C)=O)c2c1` [Melatonin] the “depletion of intracellular NAD+ levels” value [1] was “inhibited”, the “reduction in damaged DNA” value ([2]; 24 hr after UVB exposure) was roughly 30% and the “amount of dsDNA breaks” value ([2]; 24 hr after UVB exposure) was “significantly reduced”. The EC100 [2] was 100 µM, the “reduction in damaged DNA” value ([3]; 24 hr after UVB exposure) was roughly 40% and the “amount of dsDNA breaks” value ([3]; 24 hr after UVB exposure) was “significantly reduced”. For the same molecule, the EC100 [3] was 100 µM and the “intracellular NAD+ after oxidative (H2O2) insult” value [4] was “significantly reduced NAD^+ depletion”.

Vitamin E was tested, and the “depletion of intracellular NAD+ levels” value [1] was “inhibited”.

In the case of `N[C@@H](Cc1c[nH]c2ccccc12)C(=O)O` [L-tryptophan], the “reversal of NAD+ depletion compared to 1-MT treatment alone” value ([5]; 24 h) is reported as “partially reversed”.

For `O=C(OC[C@H]1O[C@@H](OC(=O)c2cc(O)c(O)c(OC(=O)c3cc(O)c(O)c(O)c3)c2)[C@H](OC(=O)c2cc(O)c(O)c(OC(=O)c3cc(O)c(O)c(O)c3)c2)[C@@H](OC(=O)c2cc(O)c(O)c(OC(=O)c3cc(O)c(O)c(O)c3)c2)[C@@H]1OC(=O)c1cc(O)c(O)c(OC(=O)c2cc(O)c(O)c(O)c2)c1)c1cc(O)c(O)c(OC(=O)c2cc(O)c(O)c(O)c2)c1` [tannic acid], the “NAD+ levels, tannic acid alone” value ([5]; 100 μM, 24 hour incubation) was “did not significantly reduce” and the “effect of resveratrol on intracellular NAD+ levels in presence of tannic acid” value ([5]; tannic acid 100 μM + resveratrol 100 μM, 24 hours) was “completely abrogated”.

In the case of `NC(=O)c1ccccn1` [Picolinamide], the “amount of dsDNA breaks” value ([2]; 24 hr after UVB exposure) is reported as “significantly reduced”, the EC100 [2] is reported as 100 µM and the “amount of dsDNA breaks” value ([3]; 24 hr after UVB exposure) is reported as “significantly reduced”. The EC100 [3] was 100 µM.

With `OO` [H2O2, hydrogen peroxide] the “LDH activity (a measure of cell death)” value [6] was “significantly increased”, the “Intracellular NAD+” value ([4]; exposure to 10-100 μM H2O2 for 20 min) was “significantly decreased” and the PARP-1 activity [7] was “significantly increased”.

`O=C(O)c1ccccc1C(=O)O` [PA] was tested, and the “abrogation of resveratrol-induced increase of intracellular NAD+ by de novo pathway inhibitor” value ([5]; 24 hour) was “Neither inhibitor was able to abrogate the resveratrol effect”.

In the case of `O=c1c(O)c(-c2ccc(O)c(O)c2)oc2cc(O)cc(O)c12` [Quercetin], the “NAD+ levels after H2O2 exposure” value ([4]; quercetin (50 μM) overnight, then 10-100 μM H2O2 for 20 min) is reported as “significantly preserved”.

`O=C(O)c1cccnc1` [nicotinic acid, Nicotinic acid] was tested, and the “reversal of NAD+ depletion compared to 1-MT treatment alone” value ([5]; 24 h) was “partially reversed”.

In the case of `Oc1ccc(/C=C/c2cc(O)cc(O)c2)cc1` [Resveratrol, 3,5,4′-trihydroxystilbene], the “Minimum effective concentrations (MEC)” value [8] is reported as 50 µM, the “amount of dsDNA breaks” value ([2]; 24 hr after UVB exposure) is reported as “significantly reduced” and the EC100 [2] is reported as 100 µM. The “amount of dsDNA breaks” value ([3]; 24 hr after UVB exposure) was “significantly reduced”, the EC100 [3] was 100 µM and the “intracellular NAD+ after oxidative (H2O2) insult” value [4] was “did not show a significant change”. For the same molecule, the “apparent antioxidant activity (H2O2-mediated NAD+ depletion)” value ([4]; resveratrol 100 μM 24 hour, then H2O2 20 minutes) was “small reduction in NAD^+ depletion”, the “decrease of Km” value [9] was “approximately 3 times” and the “intracellular NAD+ versus control levels” value ([5]; resveratrol 100 μM, 24 hour) was “significantly increased”. The “increase in intracellular NAD+ concentration” value ([5]; resveratrol 100 μM, 24 hour, cells not subject to oxidative stress) was “approximately 75%”, the “increase of NMNAT activity compared to control” value ([10]; 200 μM resveratrol, whole cell homogenates) was 67% and the “increase of NMNAT activity in the whole cell extract” value ([10]; presence of resveratrol (FIG. 16)) was “approximately 70%”.

With `Cn1cc(C[C@H](N)C(=O)O)c2ccccc21` [1-MT, 1-methyl tryptophan] the “intracellular NAD+ levels” value ([5]; 1-MT 1 mM, 24 h) was “significant decrease” and the “abrogation of resveratrol-induced increase of intracellular NAD+ by de novo pathway inhibitor” value ([5]; 24 hour) was “Neither inhibitor was able to abrogate the resveratrol effect”.

`Oc1c(I)cc(Cl)c2cccnc12` [Clioquinol] was tested, and the “Minimum effective concentrations (MEC)” value [8] was 0.1 µM, the “.OH-induced NAD+ depletion” value ([1]; Clioquinol 1 μM-100 μM, dose dependant, 100 μM H2O2, 10 μM iron, 10 μM ascorbic acid) was “effectively reduced” and the “amount of dsDNA breaks” value ([2]; 24 hr after UVB exposure) was “significantly reduced”. The EC100 [2] was 0.1 µM, the “amount of dsDNA breaks” value ([3]; 24 hr after UVB exposure) was “significantly reduced” and the EC100 [3] was 0.1 µM. The “intracellular NAD+ after oxidative (H2O2) insult” value [4] was “significantly reduced NAD^+ depletion”.
